Data published in US12624044B2, “SMARCA degraders and uses thereof” (Kymera Therapeutics, Inc., priority 2019, dated 2026).

Target: SMARCA2 (Homo sapiens, UniProt P51531)
Test: MSD SMARCA2 degradation in NCI-H1299 cell line (24 h)
Format: cell-based
Design: HC: NCI-H1299 cells treated with DMSO; host or cells: NCI-H1299
Conditions: for Dmax: NCI-H1299, NCI-H1299 cells; for DC50: NCI-H1299 cells, read-out: SMARCA2 MSD H1299 degradation 24 h: External Abs-DC50
Method in brief: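 SMARCA2 measured by MSD electrochemiluminescence (primary 0.3 ug/ml, secondary 1 ug/ml) on lysates from NCI-H1299 cells exposed to compounds for 24 h across nine 3-fold dilutions. Signal scaled from A2780 cells (no SMARCA2) to DMSO-treated H1299 controls, and maximal degradation after 24 h reported in letter categories.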

Sequence of SMARCA2 (P51531 whole entry): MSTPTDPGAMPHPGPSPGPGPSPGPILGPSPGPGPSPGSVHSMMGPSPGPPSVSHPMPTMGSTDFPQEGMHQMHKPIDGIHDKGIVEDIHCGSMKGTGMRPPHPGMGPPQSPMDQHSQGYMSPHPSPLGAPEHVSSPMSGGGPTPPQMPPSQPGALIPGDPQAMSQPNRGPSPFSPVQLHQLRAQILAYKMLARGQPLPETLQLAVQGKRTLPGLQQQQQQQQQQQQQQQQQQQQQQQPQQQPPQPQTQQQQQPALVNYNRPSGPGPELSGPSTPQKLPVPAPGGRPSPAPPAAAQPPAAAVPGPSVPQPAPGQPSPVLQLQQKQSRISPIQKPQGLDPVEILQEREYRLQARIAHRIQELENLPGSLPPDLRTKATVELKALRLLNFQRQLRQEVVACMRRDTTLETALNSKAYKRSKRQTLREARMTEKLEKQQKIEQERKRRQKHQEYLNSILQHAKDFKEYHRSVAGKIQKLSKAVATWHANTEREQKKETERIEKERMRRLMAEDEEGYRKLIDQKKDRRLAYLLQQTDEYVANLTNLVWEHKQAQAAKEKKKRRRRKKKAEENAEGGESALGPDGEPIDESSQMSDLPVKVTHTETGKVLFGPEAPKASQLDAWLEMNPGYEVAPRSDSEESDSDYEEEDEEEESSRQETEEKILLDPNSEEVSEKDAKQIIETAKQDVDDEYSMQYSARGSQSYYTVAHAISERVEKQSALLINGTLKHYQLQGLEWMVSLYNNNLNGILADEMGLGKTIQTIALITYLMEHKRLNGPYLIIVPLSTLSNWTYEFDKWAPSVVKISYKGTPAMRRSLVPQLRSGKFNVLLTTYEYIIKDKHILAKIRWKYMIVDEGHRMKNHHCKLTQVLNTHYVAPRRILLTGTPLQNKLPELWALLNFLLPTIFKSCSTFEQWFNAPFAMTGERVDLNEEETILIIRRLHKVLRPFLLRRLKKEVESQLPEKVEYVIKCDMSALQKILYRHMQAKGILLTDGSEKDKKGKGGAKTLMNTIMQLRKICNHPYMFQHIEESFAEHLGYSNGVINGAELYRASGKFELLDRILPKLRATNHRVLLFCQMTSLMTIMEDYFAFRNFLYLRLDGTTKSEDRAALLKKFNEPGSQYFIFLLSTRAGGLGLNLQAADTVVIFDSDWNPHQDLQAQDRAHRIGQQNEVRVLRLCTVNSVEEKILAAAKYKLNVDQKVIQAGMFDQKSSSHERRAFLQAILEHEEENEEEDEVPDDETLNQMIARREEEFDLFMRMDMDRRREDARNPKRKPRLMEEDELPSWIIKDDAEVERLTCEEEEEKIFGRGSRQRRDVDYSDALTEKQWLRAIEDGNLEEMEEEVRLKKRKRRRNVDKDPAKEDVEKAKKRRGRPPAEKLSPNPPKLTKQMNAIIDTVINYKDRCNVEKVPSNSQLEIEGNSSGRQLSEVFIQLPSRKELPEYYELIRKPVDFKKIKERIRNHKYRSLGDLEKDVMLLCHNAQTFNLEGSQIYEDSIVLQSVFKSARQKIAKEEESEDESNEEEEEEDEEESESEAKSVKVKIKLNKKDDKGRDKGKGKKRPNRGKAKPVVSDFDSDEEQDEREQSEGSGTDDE

| Dmax | DC50 | SMILES |
| --- | --- | --- |
| > 90% | 100 to 500 nM | CN(CCCN1CCC(c2cccc3c2n(C)c(=O)n3C2CCC(=O)NC2=O)CC1)Cc1ccc(N2CCN(c3cc(-c4ccccc4O)nnc3N)CC2)cc1 (centres unmarked) [I-110] |
| 70 to 90% | 100 to 500 nM | CN(CC[C@@H]1CN(CCCc2cccc3c2n(C)c(=O)n3C2CCC(=O)NC2=O)CCO1)Cc1ccc(N2CCN(c3cc(-c4ccccc4O)nnc3N)CC2)cc1 (some centres unmarked) [I-111] |
| < 50% | > 1000 nM | CN(CCCOCCCc1cccc2c1n(C)c(=O)n2C1CCC(=O)NC1=O)Cc1ccc(N2CCN(c3cc(-c4ccccc4O)nnc3N)CC2)cc1 (centres unmarked) [I-112] |
| < 50% | > 1000 nM | CN1C(=O)CCC(n2c(=O)n(C)c3c(CCCOCCOCCNCc4ccc(N5CCN(c6cc(-c7ccccc7O)nnc6N)CC5)cc4)cccc32)C1=O (centres unmarked) [I-113] |
| 50 to 70% | < 100 nM | CN(Cc1ccc(N2CCN(c3cc(-c4ccccc4O)nnc3N)CC2)cc1)CC1CCN(c2ccc3c(c2)n(C)c(=O)n3C2CCC(=O)NC2=O)CC1 (centres unmarked) [I-114] |
| 70 to 90% | 100 to 500 nM | Cn1c(=O)n(C2CCC(=O)NC2=O)c2cccc(CCCOC3CCN(Cc4ccc(N5CCN(c6cc(-c7ccccc7O)nnc6N)CC5)cc4)CC3)c21 (centres unmarked) [I-115] |
| 50 to 70% | 501 to 1000 nM | Nc1nnc(-c2ccccc2O)cc1N1CCN(c2ccc(CNCCOCCCc3cccc4c3oc(=O)n4C3CCC(=O)NC3=O)cc2)CC1 (centres unmarked) [I-116] |
| 70 to 90% | 100 to 500 nM | CN(Cc1ccc(N2CCN(c3cc(-c4ccccc4O)nnc3N)CC2)cc1)C[C@@H]1CN(CCCc2cccc3c2n(C)c(=O)n3C2CCC(=O)NC2=O)CCO1 (some centres unmarked) [I-117] |
| < 50% | > 1000 nM | Cn1c(=O)n(C2CCC(=O)NC2=O)c2cccc(C#CCN3CCO[C@H](CNCc4ccc(N5CCN(c6cc(-c7ccccc7O)nnc6N)CC5)cc4)C3)c21 (some centres unmarked) [I-118] |
| 70 to 90% | 100 to 500 nM | CN(CCCCOCCCCc1cccc2c1n(C)c(=O)n2C1CCC(=O)NC1=O)Cc1ccc(N2CCN(c3cc(-c4ccccc4O)nnc3N)CC2)cc1 (centres unmarked) [I-119] |
| 50 to 70% | 501 to 1000 nM | Cn1c(=O)n(C2CCC(=O)NC2=O)c2ccc(CCCN3CCO[C@@H](CNCc4ccc(N5CCN(c6cc(-c7ccccc7O)nnc6N)CC5)cc4)C3)cc21 (some centres unmarked) [I-120] |
| 70 to 90% | < 100 nM | Cn1c(=O)n(C2CCC(=O)NC2=O)c2cccc(CCCO[C@H]3C[C@H](N(C)Cc4ccc(N5CCN(c6cc(-c7ccccc7O)nnc6N)CC5)cc4)C3)c21 (some centres unmarked) [I-121] |
| < 50% | > 1000 nM | CN(CCCCc1ccc2c(c1)n(C)c(=O)n2C1CCC(=O)NC1=O)Cc1ccc(N2CCN(c3cc(-c4ccccc4O)nnc3N)CC2)cc1 (centres unmarked) [I-122] |
| 70 to 90% | 100 to 500 nM | CN(CCOCCOCCCc1ccc2c(c1)oc(=O)n2C1CCC(=O)NC1=O)Cc1ccc(N2CCN(c3cc(-c4ccccc4O)nnc3N)CC2)cc1 (centres unmarked) [I-123] |
| 70 to 90% | 100 to 500 nM | Cn1c(=O)n(C2CCC(=O)NC2=O)c2cccc(CCCOCC3CN(Cc4ccc(N5CCN(c6cc(-c7ccccc7O)nnc6N)CC5)cc4)C3)c21 (centres unmarked) [I-124] |
| < 50% | > 1000 nM | CN(CCOCCCc1ccc2c(c1)n(C)c(=O)n2C1CCC(=O)NC1=O)Cc1ccc(N2CCN(c3cc(-c4ccccc4O)nnc3N)CC2)cc1 (centres unmarked) [I-125] |
| > 90% | 100 to 500 nM | Nc1nnc(-c2ccccc2O)cc1N1CCN(c2ccc(CNCCOCCOCCCc3ccc4c(c3)oc(=O)n4C3CCC(=O)NC3=O)cc2)CC1 (centres unmarked) [I-126] |
| 50 to 70% | > 1000 nM | Nc1nnc(-c2ccccc2O)cc1N1CCN(c2ccc(CNCCCOCCCc3ccc4c(c3)oc(=O)n4C3CCC(=O)NC3=O)cc2)CC1 (centres unmarked) [I-127] |
| > 90% | < 100 nM | Cn1c(=O)n(C2CCC(=O)NC2=O)c2ccc(CCCCOCCCCNCc3ccc(N4CCN(c5cc(-c6ccccc6O)nnc5N)CC4)cc3)cc21 (centres unmarked) [I-128] |
| > 90% | > 1000 nM | CC(C)(CCOCCCc1cccc2c1oc(=O)n2C1CCC(=O)NC1=O)NCc1ccc(N2CCN(c3cc(-c4ccccc4O)nnc3N)CC2)cc1 (centres unmarked) [I-129] |
| 70 to 90% | > 1000 nM | Cn1c(=O)n(C2CCC(=O)NC2=O)c2ccc(CN3CCN(CCO[C@H]4C[C@H](NCc5ccc(N6CCN(c7cc(-c8ccccc8O)nnc7N)CC6)cc5)C4)CC3)cc21 (some centres unmarked) [I-131] |
| > 90% | < 100 nM | CN(Cc1ccc(N2CCN(c3cc(-c4ccccc4O)nnc3N)CC2)cc1)CC1CCN(Cc2cccc3c2n(C)c(=O)n3C2CCC(=O)NC2=O)CC1 (centres unmarked) [I-132, 3-(4-((4-(((4-(4-(3-amino-6-(2-hydroxyphenyl)pyridazin-4-yl)piperazin-1-yl)benzyl)(methyl)amino)methyl)piperidin-1-yl)methyl)-3-methyl-2-oxo-2,3-dihydro-1H-benzo[d]imidazol-1-yl)piperidine-2,6-dione] |
| < 50% | > 1000 nM | Cn1c(=O)n(C2CCC(=O)NC2=O)c2cccc(CCCOCCOCCOCCOCCN3CCN(Cc4ccc(-c5cc(-c6ccccc6O)nnc5N)cc4)CC3)c21 (centres unmarked) [I-133] |

| Dmax | DC50 | SMILES |
| --- | --- | --- |
| 50 to 70% | 100 to 500 nM | Cn1c(=O)n(C2CCC(=O)NC2=O)c2ccc(CCCOCCOCCOCCN3CCN(Cc4ccc(-c5cc(-c6ccccc6O)nnc5N)cc4)CC3)cc21 (centres unmarked) [I-134] |
| 50 to 70% | 100 to 500 nM | Cn1c(=O)n(C2CCC(=O)NC2=O)c2ccc(CCCOCCOCCN3CCN(Cc4ccc(-c5cc(-c6ccccc6O)nnc5N)cc4)CC3)cc21 (centres unmarked) [I-135] |
| 50 to 70% | 100 to 500 nM | Cn1c(=O)n(C2CCC(=O)NC2=O)c2ccc(CCCOCCCOCCN3CCN(Cc4ccc(-c5cc(-c6ccccc6O)nnc5N)cc4)CC3)cc21 (centres unmarked) [I-136] |
| < 50% | > 1000 nM | Cn1c(=O)n(C2CCC(=O)NC2=O)c2ccc(C#CCOCCOCCN3CCN(Cc4ccc(-c5cc(-c6ccccc6O)nnc5N)cc4)CC3)cc21 (centres unmarked) [I-137] |
| 50 to 70% | < 100 nM | Cn1c(=O)n(C2CCC(=O)NC2=O)c2ccc(CCCOCCCCN3CCN(Cc4ccc(-c5cc(-c6ccccc6O)nnc5N)cc4)CC3)cc21 (centres unmarked) [I-138] |
| 50 to 70% | < 100 nM | Cn1c(=O)n(C2CCC(=O)NC2=O)c2ccc(CCCN3CCN(Cc4ccc(-c5cc(-c6ccccc6O)nnc5N)cc4)CC3)cc21 (centres unmarked) [I-139] |
| 70 to 90% | < 100 nM | Cn1c(=O)n(C2CCC(=O)NC2=O)c2cccc(CCCOCCCN3CCN(Cc4ccc(-c5cc(-c6ccccc6O)nnc5N)cc4)CC3)c21 (centres unmarked) [I-140] |
| < 50% | 100 to 500 nM | Cn1c(=O)n(C2CCC(=O)NC2=O)c2ccc(COCCCN3CCN(Cc4ccc(-c5cc(-c6ccccc6O)nnc5N)cc4)CC3)cc21 (centres unmarked) [I-141] |
| < 50% | > 1000 nM | Cn1c(=O)n(C2CCC(=O)NC2=O)c2ccc(CCCCCCCCOc3cccc(CN4CCN(c5cc(-c6ccccc6O)nnc5N)CC4)c3)cc21 (centres unmarked) [I-142] |
| < 50% | > 1000 nM | Cn1c(=O)n(C2CCC(=O)NC2=O)c2ccc(CCCCCCCCCOc3cccc(CN4CCN(c5cc(-c6ccccc6O)nnc5N)CC4)c3)cc21 (centres unmarked) [I-143] |
| 50 to 70% | > 1000 nM | Cn1c(=O)n(C2CCC(=O)NC2=O)c2ccc(CCCCCCCCCCOc3cccc(CN4CCN(c5cc(-c6ccccc6O)nnc5N)CC4)c3)cc21 (centres unmarked) [I-144] |
| < 50% | > 1000 nM | Cn1c(=O)n(C2CCC(=O)NC2=O)c2ccc(CCCCCCCCCCCOc3cccc(CN4CCN(c5cc(-c6ccccc6O)nnc5N)CC4)c3)cc21 (centres unmarked) [I-145] |
| 70 to 90% | < 100 nM | Cn1c(=O)n(C2CCC(=O)NC2=O)c2ccc(CCCCCCCN3CCC(Cn4cc(-c5cc(-c6ccccc6O)nnc5N)cn4)CC3)cc21 (centres unmarked) [I-146] |
| 70 to 90% | 100 to 500 nM | Cn1c(=O)n(C2CCC(=O)NC2=O)c2ccc(CCCCCCCCN3CCC(Cn4cc(-c5cc(-c6ccccc6O)nnc5N)cn4)CC3)cc21 (centres unmarked) [I-147] |
| > 90% | < 100 nM | Cn1c(=O)n(C2CCC(=O)NC2=O)c2ccc(CCCCCCCCCN3CCC(Cn4cc(-c5cc(-c6ccccc6O)nnc5N)cn4)CC3)cc21 (centres unmarked) [I-148] |
| > 90% | < 100 nM | Cn1c(=O)n(C2CCC(=O)NC2=O)c2cccc(CCCCCCCN3CCC(Cn4cc(-c5cc(-c6ccccc6O)nnc5N)cn4)CC3)c21 (centres unmarked) [I-149, 3-[4-[7-[4-[[4-[3-amino-6-(2-hydroxyphenyl)pyridazin-4-yl]pyrazol-1-yl]methyl]-1-piperidyl]heptyl]-3-methyl-2-oxo-benzimidazol-1-yl]piperidine-2,6-dione] |
| > 90% | < 100 nM | Cn1c(=O)n(C2CCC(=O)NC2=O)c2cccc(CCCCCCCCN3CCC(Cn4cc(-c5cc(-c6ccccc6O)nnc5N)cn4)CC3)c21 (centres unmarked) [I-150] |
| > 90% | 100 to 500 nM | Cn1c(=O)n(C2CCC(=O)NC2=O)c2cccc(CCCCCCCCCN3CCC(Cn4cc(-c5cc(-c6ccccc6O)nnc5N)cn4)CC3)c21 (centres unmarked) [I-151] |
| < 50% | > 1000 nM | Cn1c(=O)n(C2CCC(=O)NC2=O)c2ccc(CCCCCCCCc3cccc(CN4CCN(c5cc(-c6ccccc6O)nnc5N)CC4)c3)cc21 (centres unmarked) [I-152, 3-(5-(8-(3-((4-(3-amino-6-(2-hydroxyphenyl)pyridazin-4-yl)piperazin-1-yl)methyl)phenyl)octyl)-3-methyl-2-oxo-2,3-dihydro-1H-benzo[d]imidazol-1-yl) piperidine-2,6-dione] |
| 50 to 70% | < 100 nM | Cn1c(=O)n(C2CCC(=O)NC2=O)c2ccc(CCCOCCCN3CCN(Cc4ccc(-c5cc(-c6ccccc6O)nnc5N)cc4)CC3)cc21 (centres unmarked) [I-153] |
| < 50% | > 1000 nM | Cn1c(=O)n(C2CCC(=O)NC2=O)c2ccc(CCCCN3CCN(Cc4ccc(-c5cc(-c6ccccc6O)nnc5N)cc4)CC3)cc21 (centres unmarked) [I-154] |
| 50 to 70% | 100 to 500 nM | Cn1c(=O)n(C2CCC(=O)NC2=O)c2cccc(CCCOCCCCN3CCN(Cc4ccc(-c5cc(-c6ccccc6O)nnc5N)cc4)CC3)c21 (centres unmarked) [I-155] |
| 50 to 70% | > 1000 nM | Cn1c(=O)n(C2CCC(=O)NC2=O)c2ccc(CN3CC(OCCCN4CCN(Cc5ccc(-c6cc(-c7ccccc7O)nnc6N)cc5)CC4)C3)cc21 (centres unmarked) [I-156] |
